Here are results for 24 compounds from patent publication US11980609B2, “LPA receptor antagonists and uses thereof” (Gilead Sciences, Inc., priority 2021, dated 2024).

In this assay the target is T1, human LPAR1 (Homo sapiens, UniProt Q92633).
T1 construct: host or cells: CHO-K1
T1 sequence (Q92633 whole entry): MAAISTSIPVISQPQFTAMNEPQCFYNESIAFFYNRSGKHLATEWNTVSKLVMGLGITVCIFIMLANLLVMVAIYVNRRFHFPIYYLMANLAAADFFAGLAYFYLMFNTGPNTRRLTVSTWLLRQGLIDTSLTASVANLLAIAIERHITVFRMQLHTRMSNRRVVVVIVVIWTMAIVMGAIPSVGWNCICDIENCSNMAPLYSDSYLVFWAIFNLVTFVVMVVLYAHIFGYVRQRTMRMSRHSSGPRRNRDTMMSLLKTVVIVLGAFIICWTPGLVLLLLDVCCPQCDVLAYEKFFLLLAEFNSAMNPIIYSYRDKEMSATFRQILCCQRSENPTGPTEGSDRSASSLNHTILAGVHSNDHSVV
Kind of assay: LPAR1 intracellular calcium mobilization assay (antagonist mode). The format is cell-based. The settings on record: CHO-K1 EDG2 cells expressing human LPAR1; 60 min pre-incubation with compound (0.5 nM to 10 μM), then LPA 18:2 challenge; FLIPR Tetra calcium signal. As for the experimental part:
In vitro LPAR1 activity was measured in an intracellular calcium mobilization assay.
CHO-K1 EDG2 cells (DiscoverX cat #93-0644C2) expressing human LPAR1 (NM_001401.3) were seeded in a total volume of 25 μL of Dulbecco's Modification of Eagle's Medium (DMEM) with 10% Fetal Bovine Serum, 1× PenStrepGlutamine, 300 μg/ml Hygromycin, and 800 μg/ml G418 into 384-well tissue culture plate (Grenier #781091) at 15,000 cells/well and incubated at 37° C. overnight. Prior to testing, 25 μL Calcium Loading Dye Component A (FLIPR Calcium 6 Assay Kit Molecular Device #R8190) and 2.5 mM Probenecid (Invitrogen #P36400, prepared fresh) in Hank's Balanced Salt Solution (Corning #21-023-CV), 20 mM HEPES (Corning #25-060-CI), 0.1% Bovine Serum Albumin (Sigma-Aldrich #A7906-500G) was add to the cells for 60 minutes at 37° C.
Agonist dose curves of LPA 18:2 (Avanti Polar Lipids cat #857138, 0.5 nM to 10 μM) were recorded to determine the LPA 18:2 EC80 for subsequent antagonist assays. For agonist dose curves, cells were removed from the incubator 2 hours after dye loading and transferred to the FLIPR Tetra instrument (Molecular Devices, San Jose, CA). Calcium mobilization was monitored for 5 min and 10 μL 6×LPA in HBSS/20 mM Hepes/0.1% bovine serum albumin (BSA) was added to the cells 5 seconds into the assay.
To determine the LPAR1 antagonist activity of test compounds, cells were pre-incubated with test compound at a dose range of 0.5 nM to 10 μM, followed by LPA at […] concentration (100 nM). After dye loading, cells were removed from the incubator and 0.3 μL of 200× antagonist was added. Cells were incubated for 60 minutes at 37° C. Antagonist activity was measured on a FLIPR Tetra. Calcium mobilization was monitored for 3.5 minutes and 10 μL 6×EC80 LPA in HBSS, 20 mM HEPES, and 0.1% BSA was added to the cells 5 seconds into the assay. Signal amplitude (Maximum minus minimum) values were plotted against log10 of antagonist concentration using Dose Response Tool (Gilead Sciences Inc.) to determine EC50.
To assess the antagonistic potential of exemplified compounds EC50 values were determined for Compounds 1 to 55 in the LPAR1 calcium mobilization assay. The compound numbers correspond to the compound numbers in Examples 1 to 35. N/A=not available.
Regarding `C[C@@H](OC(=O)Nc1c(-c2ccc(NS(C)(=O)=O)cc2)cnn1C)c1ccccc1Cl` [Compound 1, (R)-1-(2-chlorophenyl)ethyl (1-methyl-4-(4-(methylsulfonamido)phenyl)-1H-pyrazol-5-yl)carbamate], the EC50 came out at 11.7 nM.

Turning to `Cc1nc(-c2cnn(C)c2NC(=O)O[C@H](C)c2cccnc2Cl)ncc1OS(C)(=O)=O` [Compound 3, (R)-2-(5-(((1-(2-chloropyridin-3-yl)ethoxy)carbonyl)amino)-1-methyl-1H-pyrazol-4-yl)-4-methylpyrimidin-5-yl methanesulfonate], the EC50 came to 39.6 nM.

For `Cc1nc(-c2cnn(C)c2NC(=O)O[C@H](C)c2cccnc2Cl)ncc1O` [Compound 4, (R)-1-(2-chloropyridin-3-yl)ethyl (4-(5-hydroxy-4-methylpyrimidin-2-yl)-1-methyl-1H-pyrazol-5-yl)carbamate], the EC50 was determined as 167 nM.

As to `CCS(=O)(=O)Oc1cnc(-c2cnn(C)c2NC(=O)O[C@H](C)c2cc(F)cnc2Cl)nc1` [Compound 5, (R)-2-(5-(((1-(2-chloro-5-fluoropyridin-3-yl)ethoxy)carbonyl)amino)-1-methyl-1H-pyrazol-4-yl)pyrimidin-5-yl ethanesulfonate], the EC50 was found to be 51.5 nM.

Turning to `C[C@@H](OC(=O)Nc1c(-c2ncc(OS(C)(=O)=O)cn2)cnn1C)c1cc(F)cnc1Cl` [Compound 6, (R)-2-(5-(((1-(2-chloro-5-fluoropyridin-3-yl)ethoxy)carbonyl)amino)-1-methyl-1H-pyrazol-4-yl)pyrimidin-5-yl methanesulfonate], the 50% effective concentration (EC50) is 14.1 nM.

With `C[C@@H](OC(=O)Nc1c(-c2ncc(OS(=O)(=O)C3CC3)cn2)cnn1C)c1cccnc1F` [Compound 7, (R)-2-(5-(((1-(2-fluoropyridin-3-yl)ethoxy)carbonyl)amino)-1-methyl-1H-pyrazol-4-yl)pyrimidin-5-yl cyclopropanesulfonate], the EC50 was found to be 1410 nM.

As to `C[C@@H](OC(=O)Nc1c(-c2ncc(OS(C)(=O)=O)cn2)cnn1C)c1cccnc1F` [Compound 8, (R)-2-(5-(((1-(2-fluoropyridin-3-yl)ethoxy)carbonyl)amino)-1-methyl-1H-pyrazol-4-yl)pyrimidin-5-yl methanesulfonate], the EC50 turned out to be 523 nM.

Consider `C[C@@H](OC(=O)Nc1c(-c2ncc(OS(C)(=O)=O)cn2)cnn1C)c1cccnc1Cl` [Compound 9, (R)-2-(5-(((1-(2-chloropyridin-3-yl)ethoxy)carbonyl)amino)-1-methyl-1H-pyrazol-4-yl)pyrimidin-5-yl methanesulfonate], for which the EC50 was determined as 42.9 nM.

Regarding `C[C@@H](OC(=O)Nc1c(-c2ncc(O)cc2F)cnn1C)c1cccnc1Cl` [Compound 10, (R)-1-(2-chloropyridin-3-yl)ethyl (4-(3-fluoro-5-hydroxypyridin-2-yl)-1-methyl-1H-pyrazol-5-yl)carbamate], the EC50 was found to be 56.8 nM.

For `C[C@@H](OC(=O)Nc1c(-c2ncc(OS(C)(=O)=O)cc2F)cnn1C)c1cc(F)cnc1F` [Compound 11, (R)-6-(5-(((1-(2,5-difluoropyridin-3-yl)ethoxy)carbonyl)amino)-1-methyl-1H-pyrazol-4-yl)-5-fluoropyridin-3-yl methanesulfonate], the concentration for a half-maximal effect (EC50) amounted to 74 nM.

For `C[C@@H](OC(=O)Nc1c(-c2ncc(OS(C)(=O)=O)cc2F)cnn1C)c1cccnc1Cl` [Compound 12, (R)-6-(5-(((1-(2-chloropyridin-3-yl)ethoxy)carbonyl)amino)-1-methyl-1H-pyrazol-4-yl)-5-fluoropyridin-3-yl methanesulfonate], the EC50 came out at 31.1 nM.

With `Cc1nc(-c2cnn(C)c2NC(=O)O[C@H](C)c2cccc(F)c2)ccc1NS(C)(=O)=O` [Compound 13, (R)-1-(3-fluorophenyl)ethyl (1-methyl-4-(6-methyl-5-(methylsulfonamido)pyridin-2-yl)-1H-pyrazol-5-yl)carbamate], the EC50 was 1250 nM.

In the case of `COC(=O)Nc1ccc(-c2cnn(C)c2NC(=O)O[C@H](C)c2cccc(F)c2)nc1C` [Compound 14, (R)-1-(3-fluorophenyl)ethyl (4-(5-((methoxycarbonyl)amino)-6-methylpyridin-2-yl)-1-methyl-1H-pyrazol-5-yl)carbamate], the EC50 stood at 4180 nM.

On to `C[C@@H](OC(=O)Nc1c(-c2ccc3c(n2)OCC(=O)N3)cnn1C)c1cc(F)cnc1Cl` [Compound 15, (R)-1-(2-chloro-5-fluoropyridin-3-yl)ethyl (1-methyl-4-(2-oxo-2,3-dihydro-1H-pyrido[2,3-b][1,4]oxazin-6-yl)-1H-pyrazol-5-yl)carbamate], for which the EC50 is 25.7 nM.

For the compound `C[C@@H](OC(=O)Nc1c(-c2ncc(NC(=O)C34CC(F)(C3)C4)cc2F)cnn1C)c1cc(F)cnc1F` [Compound 16, (R)-1-(2,5-difluoropyridin-3-yl)ethyl (4-(3-fluoro-5-(3-fluorobicyclo[1.1.1]pentane-1-carboxamido)pyridin-2-yl)-1-methyl-1H-pyrazol-5-yl)carbamate], the EC50 worked out at 15.8 nM.

As for `C[C@@H](OC(=O)Nc1c(-c2ncc(NC(=O)C3(C#N)CC3)cc2F)cnn1C)c1cc(F)cnc1F` [Compound 17, (R)-1-(2,5-difluoropyridin-3-yl)ethyl (4-(5-(1-cyanocyclopropane-1-carboxamido)-3-fluoropyridin-2-yl)-1-methyl-1H-pyrazol-5-yl)carbamate], the EC50 was 19.7 nM.

Turning to `C[C@@H](OC(=O)Nc1c(-c2ncc(NC(=O)c3cnc(C(F)F)nc3)cc2F)cnn1C)c1cc(F)cnc1F` [Compound 18, (R)-1-(2,5-difluoropyridin-3-yl)ethyl (4-(5-(2-(difluoromethyl)pyrimidine-5-carboxamido)-3-fluoropyridin-2-yl)-1-methyl-1H-pyrazol-5-yl)carbamate], the EC50 came out at 36.1 nM.

`C[C@@H](OC(=O)Nc1c(-c2ccc(NC(=O)C3(C#N)CC3)cn2)cnn1C)c1cc(F)cnc1F` [Compound 19, (R)-1-(2,5-difluoropyridin-3-yl)ethyl (4-(5-(1-cyanocyclopropane-1-carboxamido)pyridin-2-yl)-1-methyl-1H-pyrazol-5-yl)carbamate]: the EC50 is 763 nM.

For the compound `C[C@@H](OC(=O)Nc1c(-c2ccc(NS(C)(=O)=O)cn2)cnn1C)c1cccnc1Cl` [Compound 20, (R)-1-(2-chloropyridin-3-yl)ethyl (1-methyl-4-(5-(methylsulfonamido)pyridin-2-yl)-1H-pyrazol-5-yl)carbamate], the 50% effective concentration (EC50) came out at 216 nM.

As for `C[C@@H](OC(=O)Nc1c(-c2ncc(NC(=O)C3(C#N)CC3)cn2)cnn1C)c1cc(F)cnc1F` [Compound 21, (R)-1-(2,5-difluoropyridin-3-yl)ethyl (4-(5-(1-cyanocyclopropane-1-carboxamido)pyrimidin-2-yl)-1-methyl-1H-pyrazol-5-yl)carbamate], the EC50 is 81.5 nM.

For the compound `C[C@@H](OC(=O)Nc1c(-c2ncc(NC(=O)c3cnc(C(F)(F)F)nc3)cn2)cnn1C)c1cc(F)cnc1F` [Compound 22, (R)-1-(2,5-difluoropyridin-3-yl)ethyl (1-methyl-4-(5-(2-(trifluoromethyl)pyrimidine-5-carboxamido)pyrimidin-2-yl)-1H-pyrazol-5-yl)carbamate], the EC50 turned out to be 8.9 nM.

For the compound `C[C@@H](OC(=O)Nc1c(-c2ncc(NC(=O)C3(C#N)CC3)cn2)cnn1C)c1cc(F)cnc1Cl` [Compound 23, (R)-1-(2-chloro-5-fluoropyridin-3-yl)ethyl (4-(5-(1-cyanocyclopropane-1-carboxamido)pyrimidin-2-yl)-1-methyl-1H-pyrazol-5-yl)carbamate], the concentration giving a half-maximal response (EC50) was determined as 16.8 nM.

Consider `C[C@@H](OC(=O)Nc1c(-c2ncc(NC(=O)c3cnc(C(F)F)nc3)cn2)cnn1C)c1cc(F)cnc1F` [Compound 24, (R)-1-(2,5-difluoropyridin-3-yl)ethyl (4-(5-(2-(difluoromethyl)pyrimidine-5-carboxamido)pyrimidin-2-yl)-1-methyl-1H-pyrazol-5-yl)carbamate], for which the EC50 worked out at 26.8 nM.

With `C[C@@H](OC(=O)Nc1c(-c2ncc(NC(=O)C3(C(F)F)CC3)cn2)cnn1C)c1cc(F)cnc1Cl` [Compound 25, (R)-1-(2-chloro-5-fluoropyridin-3-yl)ethyl (4-(5-(1-(difluoromethyl)cyclopropane-1-carboxamido)pyrimidin-2-yl)-1-methyl-1H-pyrazol-5-yl)carbamate], the EC50 is 60.5 nM.

Broadly, the EC50 is the concentration at which the effect is half-maximal.
